Data from ChEMBL document CHEMBL4152310, “Design and synthesis of novel benzenesulfonamide containing 1,2,3-triazoles as potent human carbonic anhydrase isoforms I, II, IV and IX inhibitors” (Eur J Med Chem, 2018).

target: Carbonic anhydrase 9 (Homo sapiens, UniProt Q16790); experiment: Binding affinity to human carbonic anhydrase 9 by stopped flow CO2 hydration assay

Point of comparison: `NS(=O)(=O)c1ccc(-n2cc(C(=O)c3ccc(F)cc3)nn2)cc1`, Ki 47.8 nM. Against it:
- NS(=O)(=O)c1ccc(-n2cc(C(=O)c3ccc(Br)cc3)nn2)cc1 — within 1.5-fold, 44.7 nM
- COc1ccc(C(=O)c2nnn(-c3ccc(S(N)(=O)=O)cc3)c2C(F)(F)F)cc1 — 2.9-fold higher, 141 nM
- NS(=O)(=O)c1ccc(-n2nnc(C(=O)c3ccc4ccccc4c3)c2C(F)(F)F)cc1 — 5.2-fold higher, 248 nM
- NS(=O)(=O)c1ccc(-n2nnc(C(=O)c3ccccc3)c2C(F)(F)F)cc1 — within 1.5-fold, 39.8 nM
- NS(=O)(=O)c1ccc(-n2nnc(C(=O)c3ccc(Cl)cc3)c2C(F)(F)F)cc1 — within 1.5-fold, 48.2 nM
- NS(=O)(=O)c1ccc(-n2cc(C(=O)c3cccs3)nn2)cc1 — 7.6-fold higher, 362 nM
- Cc1ccc(C(=O)c2cn(-c3ccc(S(N)(=O)=O)cc3)nn2)cc1 — 6.8-fold higher, 324 nM
- NS(=O)(=O)c1ccc(-n2cc(C(=O)c3ccccc3)nn2)cc1 — 2.8-fold higher, 136 nM
- NS(=O)(=O)c1ccc(-n2cc(C(=O)c3ccc4ccccc4c3)nn2)cc1 — 2.7-fold higher, 127 nM
- NS(=O)(=O)c1ccc(-n2nnc(C(=O)c3ccc(Br)cc3)c2C(F)(F)F)cc1 — within 1.5-fold, 35.8 nM
- NS(=O)(=O)c1ccc(-n2nnc(C(=O)c3ccco3)c2C(F)(F)F)cc1 — 4-fold higher, 190 nM
- NS(=O)(=O)c1ccc(-n2nnc(C(=O)c3ccccn3)c2C(F)(F)F)cc1 — 3.3-fold higher, 156 nM
- NS(=O)(=O)c1ccc(-n2cc(C(=O)c3ccc(Cl)cc3)nn2)cc1 — 1.8-fold lower, 27.3 nM
- NS(=O)(=O)c1ccc(-n2cc(C(=O)c3ccco3)nn2)cc1 — 4.5-fold higher, 217 nM
- Cc1ccc(C(=O)c2nnn(-c3ccc(S(N)(=O)=O)cc3)c2C(F)(F)F)cc1 — 3-fold higher, 144 nM
- NS(=O)(=O)c1ccc(-n2nnc(C(=O)c3cccs3)c2C(F)(F)F)cc1 — within 1.5-fold, 45.4 nM
- NS(=O)(=O)c1ccc(-n2cc(C(=O)c3ccccn3)nn2)cc1 — 3.8-fold higher, 182 nM
- NS(=O)(=O)c1ccc(-n2nnc(C(=O)c3ccc(F)cc3)c2C(F)(F)F)cc1 — within 1.5-fold, 38.1 nM
- COc1ccc(C(=O)c2cn(-c3ccc(S(N)(=O)=O)cc3)nn2)cc1 — 3-fold higher, 145 nM
